Assay results: patent US20250270213A1, “PI3Ka INHIBITORS” (Synnovation Therapeutics, Inc., priority 2022, published 2025)

system: T47D (PIK3CA H1047R) cells; assay: pS473 AKT assay with 2.5% FBS, T47D cells; assay type: cell-based; details: Homo sapiens, pSer473 AKT, DMEM with 2.5% FBS, 2 h treatment, read-out: T47D_IC50
Procedure: Example B. pS473 AKT Assay Protocol with 2.5% FBS
T47D (PIK3CA H1047R) cells were cultured using 10-cm petri dishes with recommended medium plus 10% fetal bovine serum. One day before the assay, cells were seeded in 96-well plates. After overnight incubation, the medium was changed to DMEM with 2.5% fetal bovine serum (FBS) and the cells were treated with different concentrations of the compounds for 2 h. Cells were then fixed using 4% paraformaldehyde at room temperature for 20 min. Aspirate 4% paraformaldehyde, and wash cells using 1× regular phosphate buffered saline 3 times, 5 min each. Aspirate any residual phosphate buffered saline and block cells using 10% goat serum containing 1% bovine serum albumin and 0.3% Triton X-100 at room temperature for 1 h. Without any additional washing, primary antibodies (rabbit anti-pSer473 AKT) were diluted using blocking buffer and added at a final volume of 50 microliter per well. Keep assay plates with primary antibodies overnight at 4° C. Wash cells using 1× regular phosphate buffered saline 3 times, 5 min each. After the final wash, incubate cells with horseradish peroxidase-conjugated secondary antibodies (goat Anti-rabbit IgG) diluted using the same blocking buffer at room temperature for 1 h. Wash cells thoroughly using 1× regular phosphate buffered saline 3 times, 5 min each. Aspirate any residual phosphate buffered saline. Add Super-Signal ELISA Pico Chemiluminescent Substrate at a final volume of 100 microliter per well. Read plates on i3x Multi-Mode Microplate Reader and calculate IC50 values using GraphPad Prism software.

IC50, < 1000 nM:
Cc1cc(C(C)Nc2ccc(Cl)nc2-c2ncn(C)n2)c2c(c1)c(=O)n(C)c1c2cnn1C1CCN(C)CC1 (stereo not drawn) [Compound 159, 9-[1-[[6-chloro-2-(1-methyl-1,2,4-triazol-3-yl)-3-pyridyl]amino]ethyl]-4,7-dimethyl-3-(1-methyl-4-piperidyl)pyrazolo[3,4-c]isoquinolin-5-one]
Cc1cc(C(C)Nc2ccc(Cl)nc2-c2cnn(C)c2)c2c(c1)c(=O)n(C)c1c2cnn1C1CN(C)C1 (stereo not drawn) [Compound 81, 9-(1-((6-Chloro-2-(1-methyl1H-pyrazol-4-yl)pyridin-3-yl)amino)ethyl)-4,7-dimethyl-3-(1-methylazetidin-3-yl)-3,4-dihydro-5H-pyrazolo[3,4-c]isoquinolin-5-one]
[2H]C([2H])([2H])n1c(=O)c2cc(C)cc(C(C)Nc3ccc(Cl)nc3-c3cnn(C)c3)c2c2cnn(C3CCN(C(=O)C4(C#N)CC4)C3)c21 (stereo not drawn) [Compound 157, 1-(3-(9-(1-((6-chloro-2-(1-methyl-1H-pyrazol-4-yl)pyridin-3-yl)amino)ethyl)-7-methyl-4-(methyl-d3)-5-oxo-4,5-dihydro-3H-pyrazolo[3,4-c]isoquinolin-3-yl)pyrrolidine-1-carbonyl)cyclopropane-1-carbonitrile]
CNC(=O)c1ccc(-c2nc(Cl)ccc2NC(C)c2cc(C)cc3c(=O)n4c5c(cnn5CCC4)c23)cc1F (stereo not drawn) [Compound 309, 4-(6-chloro-3-((1-(8-methyl-6-oxo-4,5-dihydro-3H,6H-2,2a,5a-triazaaceanthrylen-10-yl)ethyl)amino)pyridin-2-yl)-2-fluoro-N-methylbenzamide]
Cc1cc(C(C)Nc2ccc(C)nc2-c2cnn(C3CCOCC3)c2)c2c(c1)c(=O)n1c3c2cnn3CCC1 (stereo not drawn) [Compound 318, 8-methyl-10-(1-((6-methyl-2-(1-(tetrahydro-2H-pyran-4-yl)-1H-pyrazol-4-yl)pyridin-3-yl)amino)ethyl)-4,5-dihydro-3H,6H-2,2a,5a-triazaaceanthrylen-6-one]
Cc1cc(C(C)Nc2ccc(Cl)nc2-c2cnn(C)c2)c2c(c1)c(=O)n(C)c1c2cnn1C1CCN(S(C)(=O)=O)CC1 (stereo not drawn) [Example 183, 9-[1-[[6-chloro-2-(1-methylpyrazol-4-yl)-3-pyridyl]amino]ethyl]-4,7-dimethyl-3-(1-methylsulfonyl-4-piperidyl)pyrazolo[3,4-c]isoquinolin-5-one]
Cc1cc(C(C)Nc2ccc(Cl)nc2-c2cn(C)nc2C)c2c(c1)c(=O)n(C)c1c(C(=O)N(C)C)ncn21 (stereo not drawn) [Compound 130, 9-(1-((6-chloro-2-(1,3-dimethyl-1H-pyrazol-4-yl)pyridin-3-yl)amino)ethyl)-N,N,4,7-tetramethyl-5-oxo-4,5-dihydroimidazo[1,5-a]quinazoline-3-carboxamide]
Cc1cc(C(C)Nc2ccc(Cl)nc2-c2ncn(C)n2)c2c(c1)c(=O)n(C)c1c2cnn1C1CN(CCC#N)C1 (stereo not drawn) [Compound 96, 3-(3-(9-(1-((6-chloro-2-(1-methyl-1H-1,2,4-triazol-3-yl)pyridin-3-yl)amino)ethyl)-4,7-dimethyl-5-oxo-4,5-dihydro-3H-pyrazolo[3,4-c]isoquinolin-3-yl)azetidin-1-yl)propanenitrile]
Cc1cc(C(C)Nc2ccc(Cl)nc2-c2ccncc2F)c2c(c1)c(=O)n(C)c1c2cnn1C1CCN(C(=O)N(C)C)C1 (stereo not drawn) [Compound 151, 3-(9-(1-((6-chloro-3′-fluoro-[2,4′-bipyridin]-3-yl)amino)ethyl)-4,7-dimethyl-5-oxo-4,5-dihydro-3H-pyrazolo[3,4-c]isoquinolin-3-yl)-N,N-dimethylpyrrolidine-1-carboxamide]
CCn1ncc2c3c(C(C)Nc4ccc(Cl)nc4-c4noc(=O)[nH]4)cc(C)cc3c(=O)n(C)c21 (stereo not drawn) [Compound 59, 3-(6-Chloro-3-((1-(3-ethyl-4,7-dimethyl-5-oxo-4,5-dihydro-3H-pyrazolo[3,4-c]isoquinolin-9-yl)ethyl)amino)pyridin-2-yl)-1,2,4-oxadiazol-5(4H)-one]
CCn1ncc2c3c(C(C)Nc4ccc(Cl)nc4C(=O)NOC)cc(C)cc3c(=O)n(C)c21 (stereo not drawn) [Compound 75, 6-chloro-3-((1-(3-ethyl-4,7-dimethyl-5-oxo-4,5-dihydro-3H-pyrazolo[3,4-c]isoquinolin-9-yl)ethyl)amino)-N-methoxypicolinamide]
Cc1cc(C(C)Nc2ccccc2C(=O)O)c2c(c1)c(=O)n1c3c2cnn3C(C)CC1 (stereo not drawn) [Compound I-38, 2-((1-(3,8-Dimethyl-6-oxo-4,5-dihydro-3H,6H-2,2a,5a-triazaaceanthrylen-10-yl)ethyl)amino)benzoic acid]
Cc1cc(C(C)Nc2ccc(Cl)nc2-c2cnn(C)c2)c2c(c1)c(=O)n(C)c1nn(C3CCN(CC(F)F)CC3)cc21 (stereo not drawn) [Example 212, 9-(1-((6-Chloro-2-(1-methyl-1H-pyrazol-4-yl)pyridin-3-yl)amino)ethyl)-2-(1-(2,2-difluoroethyl)piperidin-4-yl)-4,7-dimethyl-2,4-dihydro-5H-pyrazolo[3,4-c]isoquinolin-5-one]
Cc1cc(C(C)Nc2ccc(Cl)nc2-c2ncn(C)n2)c2c(c1)c(=O)n(C)c1c2cnn1C1CCN(CC(C)(C)O)CC1 (stereo not drawn) [Compound 175, 9-(1-((6-chloro-2-(1-methyl-1H-1,2,4-triazol-3-yl)pyridin-3-yl)amino)ethyl)-3-(1-(2-hydroxy-2-methylpropyl)piperidin-4-yl)-4,7-dimethyl-3,4-dihydro-5H-pyrazolo[3,4-c]isoquinolin-5-one]
CCn1c(=O)c2cc(C)cc(C(C)Nc3ccc(Cl)nc3-c3noc(=O)[nH]3)c2c2cnn([C@H]3CCOC3)c21 (stereo partly drawn) [Example 215, 3-(6-chloro-3-((1-(4-ethyl-7-methyl-5-oxo-3-((S)-tetrahydrofuran-3-yl)-4,5-dihydro-3H-pyrazolo[3,4-c]isoquinolin-9-yl)ethyl)amino)pyridin-2-yl)-1,2,4-oxadiazol-5(4H)-one]
Cc1cc(C(C)Nc2ccc(Cl)nc2-c2ncn(C)n2)c2c(c1)c(=O)n(CC(F)F)c1c(C(=O)N(C)C)ncn21 (stereo not drawn) [Compound 123, 9-(1-((6-chloro-2-(1-methyl-1H-1,2,4-triazol-3-yl)pyridin-3-yl)amino)ethyl)-4-(2,2-difluoroethyl)-N,N,7-trimethyl-5-oxo-4,5-dihydroimidazo[1,5-a]quinazoline-3-carboxamide]
Cc1cc(C(C)Nc2ccc(Cl)nc2-c2nnn(C)n2)c2c(c1)c(=O)n(C)c1c2cnn1C1CCN(C)CC1 (stereo not drawn) [Compound 161, 9-[1-[[6-chloro-2-(2-methyltetrazol-5-yl)-3-pyridyl]amino]ethyl]-4,7-dimethyl-3-(1-methyl-4-piperidyl)pyrazolo[3,4-c]isoquinolin-5-one]
Cc1cc(C(C)Nc2ccc(Cl)nc2-c2cnn(C)c2)c2c(c1)c(=O)n(C)c1c2cnn1C1CCN(CC(F)F)C1 (stereo not drawn) [Compound 142, 9-(1-((6-Chloro-2-(1-methyl-1H-pyrazol-4-yl)pyridin-3-yl)amino)ethyl)-3-(1-(2,2-difluoroethyl)pyrrolidin-3-yl)-4,7-dimethyl-3,4-dihydro-5H-pyrazolo[3,4-c]isoquinolin-5-one]
